In assay [1] the test system is K562 (FLT3 negative expression, positive expression of BCR-ABL fusion protein). Briefly: In vitro growth inhibition (GI50), K562. The settings on record: Homo sapiens, Cell lines of leukemia, read-out: GI 50 K562 BCR-ABL. In kind it is cell-based. The text has this:
(§1) 1. Cell Lines and Cell Cultures
(§2) Tumor cell line is an effective cell model for studying the inhibition of tumor cell growth or proliferation in vitro. In the present invention, a representative tumor cell line was selected to determine the cell growth inhibition activity of the present compound. All cell lines used were from ATCC, DSMZ, and the Cell Bank of the Chinese Academy of Sciences. Cell culture conditions and methods were in accordance with the requirements of each cell line. Cells were subcultured in vitro for no more than 3 passages each time, and as required, single-clone purification and identification of cell lines could be carried out.
(§3) The cell culture media used were RPMI1640 (Gibco), MEM (Gibco), McCOY'S5A (Gibco), and IMDM (Gibco). The complete medium was prepared by supplement with 5˜20% fetal calf serum (Gibco), 1% double-antibiotics (10000 units/mL penicillin and 10000 units/mL), 2 mM glutamine or 1 mM sodium pyruvate, respectively.
(§4) The human acute […] monomonocyte leukemia cell line MV4-11 (FLT3 ITD+/+ mutant type, ATCC) was cultured in a complete medium comprising 1×IMDM and 10% FBS. Human acute myeloid leukemia cell line MOLM-13 (FLT3 ITD+/− mutant type, DSMZ), human acute lymphoblastic leukemia cell line RS4; 11 (FLT3 wild type, ATCC), human chronic granulocytic leukemia cell line K562 (FLT3 negative expression, positive expression of BCR-ABL fusion protein, ATCC), human promyelocytic leukemia cell line HL-60 (FLT3 wild type, ATCC), human B lymphoblastic leukemia cell line RAMOS (positive expression of Brutons tyrosine protein kinase, ATCC), human acute myeloid leukemia cell line Kasumi-1 (c-Kit N822K mutant type, ATCC), human acute monocytic leukemia cell line U937 (FLT3 wild-type, ATCC), human acute myeloid leukemia cell line OCI-AML3 (NPMc+ mutant type, ATCC), human acute myeloid leukemia cell line KG-1 (expressing FGFR1OP2-FGFR1 fusion protein, ATCC) were cultured in a complete medium comprising 1×RPMI1640 and 10% FBS, respectively.
(§5) The suspension cells were collected by centrifugation. The supernatant was discarded and the cell pellet was resuspended and counted. Different cell concentrations (5˜10×10^4 cells/mL) were prepared according to the growth cycle of each cell line and then seeded on a 96-well plate (Corning), 100 μL/well. The cells were incubated overnight at 37° C., 5% CO2. The compounds were added to the cells on the second day with 2 wells in parallel. The final concentration of organic solvent shall not exceed 1%. The cells were continually incubated for 3 to 5 days, and then subjected to MTT assay.
(§6) The compound was stored in a concentration of 10 mM at −20° C. and diluted to 2- or 10-fold series prior to use.
(§7) Dojindo CCK8 reagent kit was used as MTT assay. […] FC meter was used as microplate reader.
(§8) For adherent cells, culture medium was removed and immediately replaced with the fresh prepared medium which contains 10% CCK8 reagent (100 μL/well). For the suspension cells, CCK8 was directly added to 10% of the final concentration. The cells were continually incubated for 1˜4 h. […] The experiment was independently repeated 1˜3 times, and subject to biological statistical analysis. 4. Experimental Results
(§9) The initial concentration of the compound was 5,000 nM, then it was serially diluted by 2-fold or 10-fold to 0.01 nM. The GI50 value of each test compound was calculated according to the GI50 assay and calculation method. The experiments were repeated 1 to 3 times, and data were subjected to biological statistical analysis.

Assay [2] concerns Kasumi-1 (c-Kit N822K mutant type). Briefly: In vitro growth inhibition (GI50), Kasumi-1. In kind it is cell-based. The settings on record: Homo sapiens, Cell lines of leukemia, read-out: GI 50 Kasumi-1 Kit (N822K).
Description: as §1, §2, §3, §4
as §5, with “Adherent cells were digested with 0.25% pancreatin-EDTA (Gibco). The suspension” for “The suspension”
(§10) The compound of the present invention and the control compound were dissolved in DMSO (Sigma) respectively, with the purity of more than 98%. The compound was stored in a concentration of 10 mM at −20° C. and diluted to 2- or 10-fold series prior to use.
(§11) Dojindo CCK8 reagent kit was used as MTT assay. THERMO […] FC meter was used as microplate reader.
(§12) For adherent cells, culture medium was removed and immediately replaced with the fresh prepared medium which contains 10% CCK8 reagent (100 μL/well). For the suspension cells, CCK8 was directly added to 10% of the final concentration. The cells were continually incubated for 1˜4 h. When a dark yellow color could be observed in the solvent control wells, the absorbance value at OD450 nm was measured and the cell growth rate was calculated according to the following formula: Cell Growth Rate (%)=100*(T−T0)/(C−T0) T=optical density of drug treatment cell well—optical density of blank control well; T0=optical density of cell well before drug treatment—optical density of blank control well; C=optical density of cell well of solvent control group—optical density of blank control well. The concentration value of 50% inhibition of cell growth (GI50) was calculated according to the drug concentration and cell growth rate curve. […]

Assay [3] deals with MOLM-13 (FLT3 ITD+/− mutant type). The experiment in a line: In vitro growth inhibition (GI50), MOLM-13. The format is cell-based, human. As to conditions: Homo sapiens, MOLM-13; Cell lines of leukemia; read-out: GI 50 MOLM-13 FLT3 (ITD+/−).
Description: as §1, §2, §3, §4, §5, §6, §7, §8, §9

Another assay has as its system RS4; 11 (FLT3 wild type). Briefly: In vitro growth inhibition (GI50), RS4; 11. The format is cell-based, human. The settings on record: Homo sapiens, RS4-11; Cell lines of leukemia; read-out: GI 50 RS4: 11 FLT3 (WT).
Description: as §1, §2, §3, §4, §5, §6, §7, §8, §9

Assay [4] deals with OCI-AML3 (NPMc+ mutant type). Briefly: In vitro growth inhibition (GI50), OCI-AML3. The settings on record: Homo sapiens, OCI-AML-3; Cell lines of leukemia; read-out: GI 50 OCI- AML3 NPMc+. The format is cell-based.
Description: as §1, §2, §3, §4, §5, §6, §7, §8, §9

For assay [5], the system named is MV4-11 (FLT3 ITD+/+ mutant type). Briefly: In vitro growth inhibition (GI50), MV4-11. The format is cell-based, human. The settings on record: Homo sapiens, MV4-11; Cell lines of leukemia; read-out: GI 50 MV4-11 FLT3 (ITD +/+).
Description: as §1, §2, §3, §4, §5, §6, §7, §8, §9

Assay [6] has as its system RAMOS (positive expression of Brutons tyrosine protein kinase). Briefly: In vitro growth inhibition (GI50), RAMOS. In kind it is cell-based. The settings on record: Homo sapiens, Cell lines of leukemia, read-out: GI 50 Ramos BTK.
Description: as §1, §2, §3, §4, §5, §6, §7, §8, §9

Another assay concerns HL-60 (FLT3 wild type). The experiment in a line: In vitro growth inhibition (GI50), HL-60. The format is cell-based. The settings on record: Homo sapiens, Cell lines of leukemia, read-out: GI 50 HL60 FLT3 (WT).
Description: as §1, §2, §3, §4
as §5, with “Adherent cells were digested with 0.25% pancreatin-EDTA (Gibco). The suspension” for “The suspension”
as §10, §11, §12

The test system of assay [7] is KG-1 (expressing FGFR1OP2-FGFR1 fusion protein). Briefly: In vitro growth inhibition (GI50), KG-1. In kind it is cell-based. The settings on record: Homo sapiens; Cell lines of leukemia; read-out: GI 50 KG-1 FGFR1OP 2-FGFR1.
Description: as §1, §2, §3, §4, §5, §6, §7, §8, §9

The subject of the next assay is U937 (FLT3 wild-type). The experiment in a line: In vitro growth inhibition (GI50), U937. In kind it is cell-based. The settings on record: Homo sapiens, U-937; Cell lines of leukemia; read-out: GI 50 U937 FLT 3(WT).
Description: as §1, §2, §3, §4, §5, §6, §7, §8, §9

Regarding `CC(C)(C)c1cc(NC(=O)Nc2ccc(-n3cnc4cc(OCCN5CCCCCC5)ccc43)cc2)no1` [Compound 18, 1-{4-[5-(2-azepan-1-yl-ethoxyl)-benzimidazol-1-yl]-phenyl}3-(5-tert-butyl-isoxazole-3-yl)-urea], the GI50 was above 1000 nM in assay [1]; 100 to 1000 nM in [2]; 1 to 10 nM in assay [3]; above 1000 nM in the assay on RS4; 11 (FLT3 wild type); above 1000 nM in assay [4]; 1 to 10 nM in assay [5]. For the same molecule, the GI50 in assay [6] was 100 to 1000 nM; with HL-60 (FLT3 wild type), 100 to 1000 nM; in assay [7] it was 100 to 1000 nM; in the assay with U937 (FLT3 wild-type), above 1000 nM.

`CN1CCN(CCCOc2ccc3c(c2)ncn3-c2ccc(NC(=O)Nc3cc(C(C)(C)C)on3)cc2)CC1` [Compound 19, 1-(5-tert-butyl-isoxazol-3-yl)-3-(4-{5-[3-(4-methyl-piperazin-1-yl)-propoxyl]-benzimidazol-1-yl}-phenyl)-urea]: the GI50 in [1] is 100 to 1000 nM; in assay [2], 100 to 1000 nM; in [3] it was 0.1 to 1 nM; in the assay on RS4; 11 (FLT3 wild type) it was 10 to 100 nM; in assay [4], above 1000 nM; in assay [5], 0.1 to 1 nM. For the same molecule, the GI50 is 100 to 1000 nM in [6], 100 to 1000 nM with HL-60 (FLT3 wild type), 100 to 1000 nM in assay [7] and above 1000 nM in the assay on U937 (FLT3 wild-type).

Consider `CN(C)CCOc1ccc2c(c1)ncn2-c1ccc(NC(=O)Nc2cc(C(C)(C)C)on2)cc1` [Compound 20, 1-(5-tert-butyl-isoxazol-3-yl)-3-{4-[5-(2-dimethylamino-ethoxyl)-benzimidazol-1-yl]-phenyl}-urea], for which the GI50 in assay [1] was above 1000 nM; in assay [2], above 1000 nM; in assay [3] it was 0.1 to 1 nM; in the assay with RS4; 11 (FLT3 wild type) it was above 1000 nM; in assay [4] it was above 1000 nM; in assay [5], 0.1 to 1 nM. The GI50 (in assay [6]; in the assay with HL-60 (FLT3 wild type); in [7]; in the assay on U937 (FLT3 wild-type)) was above 1000 nM in each case.

`CC(C)(C)c1cc(NC(=O)Nc2ccc(-n3cnc4cc(OC(F)(F)F)ccc43)cc2)no1` [Compound 21, 1-(5-tert-butyl-isoxazol-3-yl)-3-[4-(5-trifluoromethoxy-benzimidazol-1-yl)-phenyl]-urea]: the GI50 in assay [1] is above 1000 nM; in assay [2], above 1000 nM; in [3], 0.1 to 1 nM; with RS4; 11 (FLT3 wild type), above 1000 nM; in assay [4], above 1000 nM; in [5], 0.1 to 1 nM. Further, the GI50 (in [6]; in the assay on HL-60 (FLT3 wild type); in [7]; with U937 (FLT3 wild-type)) was above 1000 nM in each case.

`CC(C)(C)c1cc(NC(=O)Nc2ccc(-n3cnc4cc(F)ccc43)cc2)no1` [Compound 22, 1-(5-tert-butyl-isoxazol-3-yl)-3-[4-(5-fluoro-benzimidazol-1-yl)-phenyl]-urea]: the GI50 in assay [1] was above 1000 nM; in [2], above 1000 nM; in assay [3], 0.1 to 1 nM; in the assay on RS4; 11 (FLT3 wild type) it was above 1000 nM; in assay [4] it was above 1000 nM; in assay [5], 0.1 to 1 nM. Also, the GI50 (in assay [6]; in the assay on HL-60 (FLT3 wild type); in assay [7]; in the assay with U937 (FLT3 wild-type)) was above 1000 nM each time.

As for `CC(C)(C)c1cc(NC(=O)Nc2ccc(-n3cnc4cc(C(F)(F)F)ccc43)cc2)no1` [Compound 23, 1-(5-tert-butyl-isoxazol-3-yl)-3-[4-(5-trifluoromethyl-benzimidazol-1-yl)-phenyl]-urea], the GI50 in [1] was 100 to 1000 nM; in [2] it was above 1000 nM; in assay [3], 1 to 10 nM; in the assay with RS4; 11 (FLT3 wild type) it was 100 to 1000 nM; in assay [4], above 1000 nM; in assay [5], 1 to 10 nM. The GI50 (in [6]; with HL-60 (FLT3 wild type); in assay [7]; with U937 (FLT3 wild-type)) was above 1000 nM in each case.

For the molecule `Cc1ccc2c(c1)ncn2-c1ccc(NC(=O)Nc2cc(C(C)(C)C)on2)cc1` [Compound 24, 1-(5-tert-butyl-isoxazol-3-yl)-3-[4-(5-methyl-benzimidazol-1-yl)-phenyl]-urea], the GI50 in [1] is 100 to 1000 nM; in assay [2], above 1000 nM; in [3], 1 to 10 nM; in the assay with RS4; 11 (FLT3 wild type), 100 to 1000 nM; in assay [4], above 1000 nM; in [5], 1 to 10 nM. Further, the GI50 (in assay [6]; in the assay with HL-60 (FLT3 wild type); in assay [7]; in the assay with U937 (FLT3 wild-type)) was above 1000 nM in each case.

Regarding `COc1ccc2ncn(-c3ccc(NC(=O)Nc4cc(C(C)(C)C)on4)cc3)c2c1` [Compound 25, 1-(5-tert-butyl-isoxazol-3-yl)-3-[4-(6-methoxyl-benzimidazol-1-yl)-phenyl]-urea], the GI50 was above 1000 nM in assay [1]; above 1000 nM in assay [2]; 0.1 to 1 nM in assay [3]; above 1000 nM in the assay on RS4; 11 (FLT3 wild type); above 1000 nM in assay [4]; 0.1 to 1 nM in [5]. Moreover, the GI50 (in assay [6]; in the assay with HL-60 (FLT3 wild type); in assay [7]; in the assay on U937 (FLT3 wild-type)) was above 1000 nM in each case.

These data come from US10647680B2, “Urea compound, preparation method therefor and medical use thereof” (Ancureall Pharmaceutical (Shanghai) Co., Ltd., priority 2016, dated 2020).
